Legend:
full-length HAQ STING = target: T1, full-length HAQ STING (Homo sapiens, UniProt Q86WV6, G230A/H232R/R293Q/R71H); assay: 3H-cGAMP filtration binding assay (HAQ STING); conditions: competition with tritiated cGAMP, HAQ STING membrane
T1 construct: AviTag (after GG linker) (C); HRV3C cleavage site (after GS linker) (C); HIS8 (C); made in house; host or cells: Trichoplusia ni (Hi-Five) insect cells infected with baculovirus (virus generated and amplified in Sf21 cells); used as a washed membrane preparation
Source text: The ability of compounds to bind STING is quantified by the ability to compete with tritiated cGAMP ligand for human STING receptor membrane using a radioactive filter-binding assay. The binding assay employs STING receptor obtained from Hi-Five cell membranes overexpressing full-length HAQ STING prepared in-house and tritiated cGAMP ligand also purified in-house.
(§1) The ability of compounds to bind STING is quantified by their ability to compete with tritiated cGAMP ligand for human STING receptor membrane using a radioactive filter-binding assay. The binding assay employs STING receptor obtained from Trichoplusia ni cell membranes (T. ni; Expression Systems, cat #94-002F, www.expressionsystems.com) overexpressing full-length HAQ STING and tritiated cGAMP ligand.
The basic HAQ STING filtration assay protocol is as follows:
The compounds were serially titrated by the Hamilton STARPlus CORE in a 96-well plate (Greiner, #651201) using a 1:3 ten-point dose response format. After compound preparation, a 2.2 ug/ml working concentration of STING membrane (SEQ. ID. No. 1) was prepared by diluting concentrated membrane into assay buffer (1×PBS; Invitrogen # SH30028.02) and douncing 7× using a manual tissue homogenizer (Wheaton, #357546). 148 uL of prepared membrane was then manually added to each well of a 96-well deep-well polypropylene plate (Fisher Scientific, #12-566-121). Following membrane addition, 2 uL of either titrated test compound, DMSO control (Sigma #276855), or cold cGAMP control was added to the appropriate wells using a BIOMEK FX. Compound and membrane then preincubated for 60 min at RT to allow compound binding to equilibrate. Following equilibration, 8 nM of [^3H]c-GAMP ligand was prepared by diluting into assay buffer, and 50 uL of this working stock was then manually added to each well of the assay plate. Plates were then incubated at RT for 60 min, and the contents of each assay plate were then filtered through a 96-well GF/B filter plate (PerkinElmer, #6005250) using a TOMTEC MACH III Cell Harvester equipped with 20 mM HEPES buffer (Fisher Scientific, # BP299500). The filter plates were then dried at 55° C. for 30 min using a pressurized oven before 30 uL of ULTIMA GOLD F scintillate was added to each well. Tritium levels for each reaction well were then measured using a PerkinElmer TopCount plate reader.
(§2) After normalization to controls, the percent activity for each compound concentration was calculated by measuring the amount of remaining radioactivity. The plot of percent activity versus the log of compound concentration was fit with a 4-parameter dose response equation to calculate EC50 values.

full-length WT STING = target: T2, full-length WT STING (Homo sapiens, UniProt Q86WV6, H232R); assay: 3H-cGAMP filtration binding assay (WT STING); conditions: competition with tritiated cGAMP, WT STING membrane
T2 construct: AviTag (after gg linker) (C); HRV3C cleavage site (after gs linker) (C); HIS8 (C); made in house; host or cells: Trichoplusia ni (Hi-Five) insect cells infected with baculovirus (virus generated and amplified in Sf21 cells); used as a washed membrane preparation
Method: as §1, with “WT” for “HAQ”
The basic WT STING filtration assay protocol is as follows:
16 nM of [^3H] c-GAMP ligand was prepared by diluting into assay buffer, and 50 uL of this working stock was manually added to each well of the assay plate. After ligand addition, 2 uL of either titrated test compound, DMSO control (Sigma #276855), or cold cGAMP control was added to the appropriate wells using a BIOMEK FX. The serially titrated compound was prepared on a Hamilton STARPlus CORE in a 96-well plate (Greiner, #651201) using a 1:3 ten-point dose response format. Following compound addition, a 2.2 ug/ml working concentration of STING membrane (SEQ. ID. No. 3) was prepared by diluting concentrated membrane into assay buffer (1×PBS; Invitrogen # SH30028.02) and douncing 7× using a manual tissue homogenizer (Wheaton, #357546). 148 uL of this prepared membrane was then manually added to each well of a 96-well deep-well polypropylene plate (Fisher Scientific, #12-566-121). Compound, ligand, and membrane then incubated for 60 min at RT before the contents of each assay plate were filtered through a 96-well GF/B filter plate (PerkinElmer, #6005250) using a TOMTEC MACH III Cell Harvester equipped with 20 mM HEPES buffer (Fisher Scientific, # BP299500). The filter plates were then dried at 55° C. for 30 min using a pressurized VWR oven before 30 uL of ULTIMA GOLD F scintillate was added to each well. Tritium levels for each reaction well were then measured using a PerkinElmer TopCount plate reader.
as §2

[1] = system: secretion of interferon-beta from THP1 cells; assay: IFN-β secretion in THP1 cell culture (5 h); assay type: cell-based; conditions: Homo sapiens, THP-1, 5 h, compound at 30 μM, 30 uM cGAMP = 100%, read-out: % Effect at 30 μM relative to 2′3′-cGAMP
Method: The ability of compounds to stimulate the secretion of interferon-beta from THP1 cells was measured using a human IFN-β AlphaLISA kit (Perkin Elmer, Cat. No. AL265F). The basic protocol is as follows:
A Labcyte Echo 550 acoustic dispenser was used to transfer 120 nL of compound dissolved in DMSO into the wells of an empty, sterile 384-well microplate, (Corning, Cat. No. 3712). THP1 cells (American Type Culture Collection, Cat. No. TIB202) previously frozen in Recovery Medium (Life Technologies, Cat. No. 12648-010) were thawed and immediately diluted 10-fold into 37° C. assay medium (RPMI 1640+L-Glutamine & phenol red, Life Technologies, Cat. No. 11875-085; 0.5% heat inactivated fetal bovine serum, Sigma Aldrich, Cat. No. F4135; 1 mM Sodium Pyruvate, Life Technologies, Cat. No. 11360-070; 1× non-essential amino acids; Life Technologies, Cat. No. 11140-050). The cell viability and count was ascertained using a Beckman Coulter V-Cell XR cell counter. The cells suspension was centrifuged at 200×g for 5 min at RT. Cells were resuspended to a density of 0.8×10^6/mL in 37° C. assay medium. Subsequent liquid transfers were performed using either a Matrix electronic multichannel pipette or an Agilent Bravo Automated Liquid Handling Platform.
The assay was started by dispensing 40 μL of the previously prepared cell suspension into the wells of the plate containing compounds. After 5 h incubation at 37° C., 5% CO2 in a humidified atmosphere, the plate of cells and compounds was centrifuged at 200×g for 5 min at RT. From each well, 5 μL of supernatant was transferred into corresponding wells of a white 384-well plate (Perkin Elmer, Cat. No. 6005620). To these supernatant-containing wells was added 10 μL of 5× Anti-Analyte Acceptor beads (50 μg/mL of AlphaLISA HiBlock Buffer) and incubated for 30 min at RT while shaking on an orbital plate shaker. To each well was added 10 μL of 5× Biotinylated Antibody Anti-analyte (5 nM in AlphaLISA HiBlock Buffer) and incubated on an orbital plate shaker for 60 min at RT or overnight at 4° C. To each well was added 25 μL of 2× SA-Donor beads (80 μg/mL in AlphaLISA HiBlock Buffer) and incubated for 30-45 min at RT in the dark while shaking on an orbital plate shaker. The plate was then read on a Perkin Elmer Envision (λex=680 nm, […]). The percent effect of the AlphaLISA signal at each compound concentration was calculated based on 30 uM cGAMP positive controls and 0.3% DMSO negative controls. The plot of percent effect versus the log of compound concentration was fit with a 4-parameter concentration response equation to calculate EC50 values. The test compounds were tested at concentrations 30000, 10000, 3333, 1111, 370.4, 123.4, 41.2, 13.7, 4.6, and 1.5 nM with 0.3% residual DMSO. The control compound, cGAMP was tested at concentrations 100000, 33333, 11111, 3704, 1235, 412, 137, 46, and 15 nM with 0.3% residual DMSO.
Compounds of the disclosure were evaluated for IFN-β secretion in THP1 cell culture as described above. The following table tabulates the biological data for these compounds as percent activation relative to 2′3′-cGAMP at the 30 µM concentration.

T1 sequence (Q86WV6 with tags, fused parts or gaps R71H/G230A/H232R/R293Q): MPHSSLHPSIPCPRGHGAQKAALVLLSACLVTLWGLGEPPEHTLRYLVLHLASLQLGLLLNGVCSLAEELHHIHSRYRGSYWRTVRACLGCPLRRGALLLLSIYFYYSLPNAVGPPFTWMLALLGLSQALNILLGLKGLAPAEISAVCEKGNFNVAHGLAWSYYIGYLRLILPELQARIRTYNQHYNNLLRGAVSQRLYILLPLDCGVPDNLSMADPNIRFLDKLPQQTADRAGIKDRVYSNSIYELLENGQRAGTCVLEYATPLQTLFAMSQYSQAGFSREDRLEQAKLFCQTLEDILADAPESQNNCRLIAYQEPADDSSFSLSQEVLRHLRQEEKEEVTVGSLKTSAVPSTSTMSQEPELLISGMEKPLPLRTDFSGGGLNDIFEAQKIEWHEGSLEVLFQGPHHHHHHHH
T2 sequence (Q86WV6 with tags, fused parts or gaps H232R): as the sequence (Q86WV6 with tags, fused parts or gaps R71H/G230A/H232R/R293Q) above, with H71R, A230G, Q293R counted along it

SMILES | EC50 (full-length HAQ STING) | EC50 (full-length WT STING) | activation at 30 µM [1]
COc1cc2sc(C(=O)CCC(=O)O)cc2nc1CCOc1nc2cc(C(=O)CCC(=O)O)sc2cc1OC [Example 8, 4-(5-(2-(2-(3-carboxypropanoyl)-6-methoxythieno[3,2-b]pyridin-5-yl)ethoxy)-6-methoxythieno[3,2-b]pyridin-2-yl)-4-oxobutanoic acid] | 12 nM | 76 nM | 99%
COc1cc2sc(C(=O)CCC(=O)O)nc2cc1OCCc1nc2cc(C(=O)CCC(=O)O)sc2cc1OC [Example 9, 4-(5-(2-((2-(3-carboxypropanoyl)-6-methoxybenzo[d]thiazol-5-yl)oxy)ethyl)-6-methoxythieno[3,2-b]pyridin-2-yl)-4-oxobutanoic acid] | 116 nM | 322 nM | 48%
COc1cc2sc(C(=O)CCC(=O)O)cc2cc1CCCOc1nc2cc(C(=O)CCC(=O)O)sc2cc1OC [Example 10, 4-(5-(3-(2-(3-carboxypropanoyl)-6-methoxybenzo [b]thiophen-5-yl)propoxy)-6-methoxythieno[3,2-b]pyridin-2-yl)-4-oxobutanoic acid] | 123 nM | 421 nM | 134%
COc1cc2sc(C(=O)CCC(=O)O)cc2cc1OCCOc1ccc2sc(C(=O)CCC(=O)O)cc2c1 [Example 11, 4-(5-(2-((2-(3-carboxypropanoyl)-6-methoxybenzo [b]thiophen-5-yl)oxy)ethoxy)benzo[b]thiophen-2-yl)-4-oxobutanoic acid] | 1760 nM | 4560 nM | 7%
COc1cc2sc(C(=O)CCC(=O)O)cc2cc1OCCCc1nc2cc(C(=O)CCC(=O)O)sc2cc1OC [Example 13, 4-(5-(3-((2-(3-carboxypropanoyl)-6-methoxybenzo[b]thiophen-5-yl)oxy)propyl)-6-methoxythieno[3,2-b]pyridin-2-yl)-4-oxobutanoic acid] | 158 nM | 625 nM | 67%
COc1cc2sc(C(=O)C[C@H](C)C(=O)O)cc2cc1CCCOc1nc2cc(C(=O)CCC(=O)O)sc2cc1OC [Example 14, (S)-4-(5-(3-((2-(3-carboxypropanoyl)-6-methoxythieno[3,2-b]pyridin-5-yl)oxy)propyl)-6-methoxybenzo[b]thiophen-2-yl)-2-methyl-4-oxobutanoic acid] | 3 nM | 21 nM | 77%
COc1cc2sc(C(=O)C[C@H](C)C(=O)O)cc2cc1OCCCc1nc2cc(C(=O)CCC(=O)O)sc2cc1OC [Example 15, (S)-4-(5-(3-(2-(3-carboxypropanoyl)-6-methoxythieno [3,2-b]pyridin-5-yl)propoxy)-6-methoxybenzo[b]thiophen-2-yl)-2-methyl-4-oxobutanoic acid] | 107 nM | 615 nM | 114%
COc1cc2sc(C(=O)C[C@H](C)C(=O)O)cc2cc1CCCOc1nc2cc(C(=O)C[C@H](C)C(=O)O)sc2cc1OC [Example 16, (S)-4-(5-(3-(2-((S)-3-carboxybutanoyl)-6-methoxybenzo [b]thiophen-5-yl)propoxy)-6-methoxythieno[3,2-b]pyridin-2-yl)-2-methyl-4-oxobutanoic acid] | 22 nM | 51 nM | 70%
COc1cc2sc(C(=O)CCC(=O)O)cc2cc1OCCOc1nc2cc(C(=O)C[C@H](C)C(=O)O)sc2cc1OC [Example 17, (S)-4-(5-(2-((2-(3-carboxypropanoyl)-6-methoxybenzo [b]thiophen-5-yl)oxy)ethoxy)-6-methoxythieno[3,2-b]pyridin-2-yl)-2-methyl-4-oxobutanoic acid] | 52 nM | 299 nM | 38%
COc1cc2sc(C(=O)CCC(=O)O)cc2cc1OCCCOc1nc2cc(C(=O)C[C@H](C)C(=O)O)sc2cc1OC [Example 18, (S)-4-(5-(3-((2-(3-carboxypropanoyl)-6-methoxybenzo [b]thiophen-5-yl)oxy)propoxy)-6-methoxythieno [3,2-b]pyridin-2-yl)-2-methyl-4-oxobutanoic acid] | 2 nM | 8 nM | 62%
